Source: patent US9169241B2, “Quinolinyloxyphenylsulfonamides” (Max-Planck-Gesellschaft Zur Forderung der Wissenschaften …, priority 2009, dated 2015)
Read-outs that look alike come from different tables or passages of the source.

Columns and labels:
C8161 = assay: Apoptosis assay (Cellomics, nucleus condensation); format: cell-based; settings: Homo sapiens, Table III, read-out: Apoptosis induction in C8161
Description: (§1) The Cellomics BioApplication (Thermo Fischer Cellomics Products, Pittsburgh, Pa.) is an automated image analysis algorithm that provides detailed analysis of phenotypes related to apoptosis. As one of the most prominent characteristics of apoptotics cell a nucleus condensation takes place. This can be measured fluorescence signal intensity using a CCD camera on fully automated microscope system. The Cellomics system is able to quantify the fluorescence intensity per single nucleus and calculates the variation of signal intensity in each cell population. […] Additionally the number of detected cell decreases normally in apoptotic cell populations. In detail 5000 cell per 96 well were labeled with DNA intercalating dye (Hoechst 33342, Sigma, Steinheim, Germany) to visualize the nucleus in a fluorescence microscope under live conditions. The apoptosis assay was performed 24 h and 48 h after addition of compound at concentrations 12.5 μM, 6.25 μM, 3.125 μM, 1.56 μM, 0.78 μM, 0.39 μM as well as DMSO control for 48 h.

Hs578T [1] = assay: Apoptosis assay (Cellomics, nucleus condensation); format: cell-based; settings: Homo sapiens, Hs-578T, Table III, read-out: Apoptosis induction in Hs578T
Description: as §1

SF126 = assay: Apoptosis assay (Cellomics, nucleus condensation); format: cell-based; settings: Homo sapiens, SF-126, Table III, read-out: Apoptosis induction in SF126
Description: as §1

SF763 = assay: Apoptosis assay (Cellomics, nucleus condensation); format: cell-based; settings: Table III, read-out: Apoptosis induction in SF763
Description: as §1

U138 = assay: Apoptosis assay (Cellomics, nucleus condensation); format: cell-based; settings: Table III, read-out: Apoptosis induction in U138
Description: as §1

indicated cell line = assay: Wound healing migration assay (Table IV); format: cell-based; settings: compounds at 12.5, 6.25, 3.125 μM, 48 h-72 h
Protocol: This method mimics cell migration during wound healing in vivo. The basic steps involve creating a “wound” in a cell monolayer, capturing the images at the beginning and at regular intervals during cell migration to close the wound, and comparing the images to quantify the migration rate of the cells. In detail, 150000 cell/24 well have been seeded and allowed to form a monolayer overnight. Subsequently a “wound” or “scratch” has been performed with a 1000 μl pipette tip. The STDV of wound size is normally below 10% at time point t0. The assay was stopped by fixation with 0.05% Crystal violet/20% methanol when control scratches were closed. The assay was terminated between 48 h and 72 h depending on the migration potential of the indicated cell line. The “wounds” were visualized with a Zeiss Axiovert S100 microscope (Carl Zeiss UK, Welwyn Garden City, UK). The tested compounds were used at 12.5 μM, 6.25, 3.125 μM and DMSO control. IC50 values have been calculated as 50% wound size in between t0 and t48 or t72.

Hs578T [2] = assay: Matrigel outgrowth assay/branching assay; format: cell-based; settings: Homo sapiens, Hs-578T; HS578T cell line; Table Ib; read-out: Total branching inhibition in Matrigel HS578T
How it was run: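 Matrigel 3 mg/ml, polymerized 1 h 37° C; 5000 cells/well + cmpd 3.125/1.56/0.78 μM or DMSO. Imaged 48/72/96 h, 5× objective. Positive = total branching block.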

tumor cell = assay: Matrigel outgrowth assay/branching assay (Table Va); format: cell-based
Protocol: The Matrigel outgrowth assay is based on the ability of tumor cell to penetrate a solid gel of extracellular matrix proteins mimicking the metastasis formation in vivo. While cells with low invasive potential appear as roundish cell or cell cluster, cells with high invasive potential penetrate the Matrigel and form polymorphic structures. In detail 65 μl of Matrigel matrix (Matrigel™ Matrix, BD Biosciences, Bedford, Mass., USA) with a concentration of 3 mg/ml have been polymerized in 96 well plates for 1 h at 37° C. Subsequently 5000 cell/well were seeded into each well containing cell culture medium and indicated compound with concentrations of 3.125 μM, 1.56 μM and 0.78 μM as well as DMSO control. After 48 h, 72 h and 96 h images of cell were taken on an inverted microscope using a 5× objective (Zeiss Axiovert S100 microscope Carl Zeiss UK, Welwyn Garden City, UK). Only compound concentrations were total branching inhibition was evident were accounted as positive. Method was used as previously described, with some modifications (Thompson E W, et al. Association of increased basement membrane invasiveness with absence of estrogen receptor and expression of vimentin in human breast cancer cell lines. J Cell Physiol 1992; 150:534-44).

cells = assay: Boyden chamber migration assay (Table VI); format: cell-based; settings: Homo sapiens, Hs-578T, 16 h, Hs578T cells; 16 h migration
Protocol: The Boyden chamber assay is based on a chamber of two medium-filled compartments separated by a microporous membrane of 8 μM (Cell culture insert 8.0 μM pore size, BD Biosciences, Bedford, Mass.). The boyden chamber migration assays were carried out according to the supplier's instructions. In general, 20000 cells are placed in the upper compartment with medium containing 0% FCS plus 0.1% BSA and are allowed to migrate 16 h through the pores of the membrane into the lower compartment, which is filled with cell culture medium containing 10% FCS as chemotactic agents. The cells remaining in the insert were removed with a cotton swab, and the cells on the bottom of the filter were fixed and counted. (Zhang Y X, et al. AXL is a potential target for therapeutic intervention in breast cancer progression. Cancer Res. 2008; 68:1905-15).

viable cells in culture = assay: Cell viability assay at 10 μM (CellTiter-Glo, Table VII); format: cell-based; settings: compound 10 μM, 72 h;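 also: graded A 0-20%; B 21-40%; C 41-60%; D over 60% viable cells relative to DMSO control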
How it was run: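 Cells were seeded at 1000 cells/well in 96-well plates in 100 μl culture medium and incubated for 72 h with 10 μM compound or a DMSO control. ATP content, which reflects metabolically active and therefore viable cells, was then determined by CellTiter-Glo luminescence (Promega) per the manufacturer's instructions and expressed relative to the DMSO control.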

[3] = Homo sapiens, C8161 cells, read-out: IC50 Wound healing Assay C8161
[4] = SF763 cells, read-out: IC50 Wound healing Assay SF763
[5] = Homo sapiens, C8161 cells, read-out: Total branching inhibition in Matrigel C8161
[6] = Homo sapiens, Hs-578T, Hs578T cells, read-out: Total branching inhibition in Matrigel Hs578T
[7] = U118 cells, read-out: Total branching inhibition in Matrigel U118
[8] = U138 cells, read-out: Total branching inhibition in Matrigel U138
[9] = Homo sapiens, HCT-116, HCT116 def, read-out: percentage (%) of viable cells HCT 116def
[10] = Homo sapiens, HCT-116, HCT116 wt, read-out: percentage (%) of viable cells HCT 116wt
[11] = Homo sapiens, HT-29, HT29, read-out: percentage (%) of viable cells HT29
[12] = Homo sapiens, NCI-H358, H358, read-out: percentage (%) of viable cells H358
[13] = Homo sapiens, NCI-H1650, H1650, read-out: percentage (%) of viable cells H1650
[14] = Homo sapiens, NCI-H1666, H1666, read-out: percentage (%) of viable cells H1666
[15] = Homo sapiens, NCI-H1975, H1975, read-out: percentage (%) of viable cells H1975
[16] = Homo sapiens, NCI-H1993, H1993, read-out: percentage (%) of viable cells H1993
[17] = Homo sapiens, A549, read-out: percentage (%) of viable cells A549
[18] = Homo sapiens, HCC827, read-out: percentage (%) of viable cells HCC827
[19] = Homo sapiens, SW480, read-out: percentage (%) of viable cells SW480
[20] = RKO, read-out: percentage (%) of viable cells RKO

COc1cc2c(Oc3ccc(NS(=O)(=O)c4ccccc4C#N)cc3F)ccnc2cc1OCCCN1CCN(C)CC1 [Example 15, 2-Cyano-N-(3-fluoro-4-{6-methoxy-7-[3-(4-methyl-piperazin-1-yl)-propoxy]-quinolin-4-yloxy}-phenyl)-benzenesulfonamide]
IC50 (C8161): ≤ 12.5 µM
IC50 (Hs578T [1]): ≤ 12.5 µM
IC50 (SF126): ≤ 12.5 µM
IC50 (SF763): ≤ 12.5 µM
IC50 (U138): ≤ 12.5 µM
IC50 (indicated cell line; [3]): 12.5 to 50 µM
IC50 (indicated cell line; [4]): ≤ 12.5 µM
IC50 (Hs578T [2]): ≤ 10 µM
IC50 (tumor cell; [5]): ≤ 5 µM
IC50 (tumor cell; [6]): ≤ 5 µM
IC50 (tumor cell; [7]): ≤ 5 µM
IC50 (tumor cell; [8]): ≤ 5 µM
IC50 (cells): ≤ 5 µM
viability at 10 µM (viable cells in culture; [9]): > 60%
viability at 10 µM (viable cells in culture; [10]): > 60%
viability at 10 µM (viable cells in culture; [11]): 41 to 60%
viability at 10 µM (viable cells in culture; [12]): 41 to 60%
viability at 10 µM (viable cells in culture; [13]): 41 to 60%
viability at 10 µM (viable cells in culture; [14]): 41 to 60%
viability at 10 µM (viable cells in culture; [15]): 41 to 60%
viability at 10 µM (viable cells in culture; [16]): 21 to 40%
viability at 10 µM (viable cells in culture; [17]): > 60%
viability at 10 µM (viable cells in culture; [18]): > 60%
viability at 10 µM (viable cells in culture; [19]): 21 to 40%
viability at 10 µM (viable cells in culture; [20]): 41 to 60%
melting point: 109 to 111 °C

COc1cc2c(Oc3ccc(NS(=O)(=O)c4ccc(F)cc4F)cc3F)ccnc2cc1OCCCN1CCN(C)CC1 [Example 16, 2,4-Difluoro-N-(3-fluoro-4-{6-methoxy-7-[3-(4-methyl-piperazin-1-yl)-propoxy]-quinolin-4-yloxy}-phenyl)-benzenesulfonamide]
IC50 (C8161): ≤ 12.5 µM
IC50 (Hs578T [1]): ≤ 12.5 µM
IC50 (SF126): ≤ 12.5 µM
IC50 (SF763): ≤ 12.5 µM
IC50 (U138): ≤ 12.5 µM
IC50 (indicated cell line; [3]): 12.5 to 50 µM
IC50 (indicated cell line; [4]): 12.5 to 50 µM
IC50 (tumor cell; [5]): ≤ 5 µM
IC50 (tumor cell; [6]): 5 to 50 µM
IC50 (tumor cell; [7]): 5 to 50 µM
IC50 (tumor cell; [8]): ≤ 5 µM
IC50 (cells): ≤ 5 µM
viability at 10 µM (viable cells in culture; [9]): 41 to 60%
viability at 10 µM (viable cells in culture; [10]): 41 to 60%
viability at 10 µM (viable cells in culture; [11]): 21 to 40%
viability at 10 µM (viable cells in culture; [12]): 0 to 20%
viability at 10 µM (viable cells in culture; [13]): 21 to 40%
viability at 10 µM (viable cells in culture; [14]): 41 to 60%
viability at 10 µM (viable cells in culture; [15]): 0 to 20%
viability at 10 µM (viable cells in culture; [16]): 21 to 40%
viability at 10 µM (viable cells in culture; [17]): 41 to 60%
viability at 10 µM (viable cells in culture; [18]): 41 to 60%
viability at 10 µM (viable cells in culture; [19]): 0 to 20%
viability at 10 µM (viable cells in culture; [20]): 21 to 40%
melting point: 99 to 102 °C

CCN(CC)CCCOc1cc2nccc(Oc3ccc(NS(=O)(=O)c4ccccc4C(F)(F)F)cc3F)c2cc1OC [Example 101, N-{4-[7-(3-Diethylamino-propoxy)-6-methoxy-quinolin-4-yloxy]-3-fluoro-phenyl}-2-trifluoromethyl-benzenesulfonamide]
IC50 (C8161): ≤ 12.5 µM
IC50 (Hs578T [1]): ≤ 12.5 µM
IC50 (SF126): 12.5 to 50 µM
IC50 (SF763): ≤ 12.5 µM
IC50 (U138): ≤ 12.5 µM
IC50 (indicated cell line; [3]): 12.5 to 50 µM
IC50 (indicated cell line; [4]): 12.5 to 50 µM
IC50 (Hs578T [2]): 10 to 25 µM
IC50 (tumor cell; [5]): ≤ 5 µM
IC50 (tumor cell; [6]): 5 to 50 µM
IC50 (tumor cell; [7]): ≤ 5 µM
IC50 (tumor cell; [8]): 5 to 50 µM
IC50 (cells): ≤ 5 µM
viability at 10 µM (viable cells in culture; [9]): 21 to 40%
viability at 10 µM (viable cells in culture; [10]): 21 to 40%
viability at 10 µM (viable cells in culture; [11]): 0 to 20%
viability at 10 µM (viable cells in culture; [12]): 0 to 20%
viability at 10 µM (viable cells in culture; [13]): 41 to 60%
viability at 10 µM (viable cells in culture; [14]): 41 to 60%
viability at 10 µM (viable cells in culture; [15]): 41 to 60%
viability at 10 µM (viable cells in culture; [16]): 21 to 40%
viability at 10 µM (viable cells in culture; [17]): 41 to 60%
viability at 10 µM (viable cells in culture; [18]): 21 to 40%
viability at 10 µM (viable cells in culture; [19]): 0 to 20%
viability at 10 µM (viable cells in culture; [20]): 0 to 20%
